The test concerns BT20 Cell. The test is described as follows: Cancer Cell Lysate Total L-Glutamate Assay. It is filed as cell-based. To be noted: Homo sapiens, BT-20, 2 h, total L-glutamate in cell lysate, BT20 cells, 2 hour incubation with test compound. In a few lines: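 BT20 and other cancer lines at ~80% confluence were given fresh L-glutamine-containing medium, then treated with serially diluted compound (0.5% DMSO) for 2 hours at 37° C. Washed cells were lysed by freeze-thaw and sonication. Lysate glutamate was measured via glutamate oxidase/HRP/50 μM Amplex Red fluorescence (ex 530-560, em 585 nm); IC50 by four-parameter logistic fit.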

As for `O=C(Cc1ccccn1)Nc1nnc(C2CCC(c3nnc(NC(=O)Cc4ccccn4)s3)CC2)s1` (racemic) [Example 140, N,N′-(cyclohexane-1,4-diyldi-1,3,4-thiadiazole-5,2-diyl)bis[2-(pyridin-2-yl)acetamide]], the IC50 was determined as 380 nM.

In turn, `CCC(=O)Nc1ccc(C[C@@H]2CC[C@H](c3nnc(NC(=O)Cc4ccccn4)s3)C2)nn1` (single isomer, unassigned) [Example 79, N-(6-{[(cis)-3-{5-[(pyridin-2-ylacetyl)amino]-1,3,4-thiadiazol-2-yl}cyclopentyl]methyl}pyridazin-3-yl)propanamide] gave an IC50 of 1.1 nM. In turn, `O=C(Cc1ccccn1)Nc1nnc(C2CCCC(c3nnc(NC(=O)Cc4ccccn4)s3)C2)s1` (racemic) [Example 139, N,N′-[cyclohexane-1,3-diyldi-1,3,4-thiadiazole-5,2-diyl]bis[2-(pyridin-2-yl)acetamide]] gave an IC50 of 196 nM.

Turning to `CCC(=O)Nc1ccc(C[C@H]2CC[C@@H](c3nnc(NC(=O)Cc4ccn(C)n4)s3)C2)nn1` (single isomer, unassigned) [Example 91, N-(6-{[(cis)-3-(5-{[(1-methyl-1H-pyrazol-3-yl)acetyl]amino}-1,3,4-thiadiazol-2-yl)cyclopentyl]methyl}pyridazin-3-yl)propanamide], the IC50 amounted to 1.5 nM.

For the compound `Cn1ccc(CC(=O)Nc2nnc([C@@H]3CC[C@H](Cc4ccc(NC(=O)Cc5ccccn5)nn4)C3)s2)n1` (single isomer, unassigned) [Example 127, 2-(1-methyl-1H-pyrazol-3-yl)-N-{5-[(cis)-3-({6-[(pyridin-2-ylacetyl)amino]pyridazin-3-yl}methyl)cyclopentyl]-1,3,4-thiadiazol-2-yl}acetamide], half-maximal inhibition (IC50) was put at 0.7 nM. `CC(C)C(=O)Nc1nnc(C[C@H]2C[C@@H](c3nnc(NC(=O)Cc4ccccn4)s3)C2)s1` (single isomer, unassigned) [Example 104, 2-methyl-N-{5-[(cis-3-{5-[(pyridin-2-ylacetyl)amino]-1,3,4-thiadiazol-2-yl}cyclobutyl)methyl]-1,3,4-thiadiazol-2-yl}propanamide]: half-maximal inhibition (IC50) required 8.6 nM. Compound `CC(=O)Nc1nnc(C[C@H]2CC[C@@H](c3nnc(NC(=O)Cc4ccccn4)s3)C2)s1` (single isomer, unassigned) [Example 56, N-{5-[(cis)-3-{[5-(acetylamino)-1,3,4-thiadiazol-2-yl]methyl}cyclopentyl]-1,3,4-thiadiazol-2-yl}-2-(pyridin-2-yl)acetamide] displayed a half-inhibitory concentration (IC50) of 2700 nM. Then `CC(C)C(=O)Nc1nnc([C@H]2CC3(C[C@H](c4nnc(NC(=O)C(C)C)s4)C3)C2)s1` (stereo partly shown) [Example 95, N,N′-(spiro[3.3]heptane-2,6-diyldi-1,3,4-thiadiazole-5,2-diyl)bis(2-methylpropanamide)], with 1.4 nM; and `CC(=O)Nc1nnc([C@H]2CC3(C[C@H](c4nnc(NC(C)=O)s4)C3)C2)s1` (single isomer, unassigned) [Example 93, N,N′-(spiro[3.3]heptane-2,6-diyldi-1,3,4-thiadiazole-5,2-diyl)diacetamide], with 10.4 nM.

As for `CCNc1nnc([C@H]2C[C@H](Cc3ccc(NC(=O)Cc4ccccn4)nn3)C2)s1` (single isomer, unassigned) [Example 113, N-[6-({trans-3-[5-(ethylamino)-1,3,4-thiadiazol-2-yl]cyclobutyl}methyl)pyridazin-3-yl]-2-(pyridin-2-yl)acetamide], the IC50 was 5.6 nM.

Take `C[C@H](C(=O)Nc1nnc(C[C@H]2CC[C@@H](c3nnc(NC(=O)[C@@H](C)c4cccnc4)s3)C2)s1)c1cccnc1` (single isomer, unassigned) [Example 32, 2-(pyridin-3-yl)-N-(5-{[(cis)-3-(5-{[2-(pyridin-3-yl)propanoyl]amino}-1,3,4-thiadiazol-2-yl)cyclopentyl]methyl}-1,3,4-thiadiazol-2-yl)propanamide]: the IC50 was 201 nM. For `Cc1ccc(CC(=O)Nc2nnc(C[C@H]3C[C@@H](c4nnc(NC(=O)Cc5ccc(C)cn5)s4)C3)s2)nc1` (single isomer, unassigned) [Example 108, 2-(5-methylpyridin-2-yl)-N-(5-{[cis-3-(5-{[(5-methylpyridin-2-yl)acetyl]amino}-1,3,4-thiadiazol-2-yl)cyclobutyl]methyl}-1,3,4-thiadiazol-2-yl)acetamide] the value was 0.3 nM; for `CC(=O)Nc1nnc(C2CCC(Cc3nnc(NC(=O)Cc4ccc(C)nc4)s3)C2)s1` (racemic) [Example 52, (rac)-N-[5-({(cis)-3-[5-(acetylamino)-1,3,4-thiadiazol-2-yl]cyclopentyl}methyl)-1,3,4-thiadiazol-2-yl]-2-(6-methylpyridin-3-yl)acetamide], 29.8 nM. Take `Cn1ccc(Nc2nnc([C@H]3CC[C@@H](Cc4nnc(NC(=O)Cc5ccccn5)s4)C3)s2)n1` (single isomer, unassigned) [Example 89, N-(5-{[(cis)-3-{5-[(1-methyl-1H-pyrazol-3-yl)amino]-1,3,4-thiadiazol-2-yl}cyclopentyl]methyl}-1,3,4-thiadiazol-2-yl)-2-(pyridin-2-yl)acetamide]: half-maximal inhibition (IC50) required 3.9 nM. For `C[C@H](C(=O)Nc1nnc([C@H]2CC[C@@H](Cc3nnc(NC(=O)[C@H](C)c4cccnc4)s3)C2)s1)c1cccnc1` (single isomer, unassigned) [Example 35, 2-(pyridin-3-yl)-N-(5-{[(cis)-3-(5-{[2-(pyridin-3-yl)propanoyl]amino}-1,3,4-thiadiazol-2-yl)cyclopentyl]methyl}-1,3,4-thiadiazol-2-yl)propanamide], the IC50 amounted to 50.7 nM. Consider `C[C@H](C(=O)Nc1nnc(C[C@H]2CC[C@@H](c3nnc(NC(=O)[C@H](C)c4cccnc4)s3)C2)s1)c1cccnc1` (single isomer, unassigned) [Example 34, 2-(pyridin-3-yl)-N-(5-{[(cis)-3-(5-{[2-(pyridin-3-yl)propanoyl]amino}-1,3,4-thiadiazol-2-yl)cyclopentyl]methyl}-1,3,4-thiadiazol-2-yl)propanamide], for which the IC50 was 942 nM. Then `CC(=O)Nc1nnc(C[C@@H]2CC[C@H](c3nnc(NC(=O)Cc4ccccc4)s3)C2)s1` (single isomer, unassigned) [Example 44, N-{5-[(cis)-3-{[5-(acetylamino)-1,3,4-thiadiazol-2-yl]methyl}cyclopentyl]-1,3,4-thiadiazol-2-yl}-2-phenylacetamide], with 5.5 nM; and `O=C(Cc1ccccc1)Nc1ccc(C[C@@H]2CC[C@H](c3nnc(NC(=O)Cc4ccccn4)s3)C2)nn1` [Example 80, 2-phenyl-N-(6-{[(1R,3S)-3-{5-[(pyridin-2-ylacetyl)amino]-1,3,4-thiadiazol-2-yl}cyclopentyl]methyl}pyridazin-3-yl)acetamide], with 0.1 nM; and `O=C(Cc1ccccn1)Nc1nnc(C[C@H]2C[C@@H](c3nnc(NC(=O)Cc4ccccn4)s3)C2)s1` (single isomer, unassigned) [Example 22, 2-(pyridin-2-yl)-N-{5-[(cis-3-{5-[(pyridin-2-ylacetyl)amino]-1,3,4-thiadiazol-2-yl}cyclobutyl)methyl]-1,3,4-thiadiazol-2-yl}acetamide], with 1.4 nM.

Usually IC50 stands for the concentration needed to halve the response being measured. Read a low IC50 as higher potency.

These data come from patent publication US10676471B2, “Cycloalkyl-linked diheterocycle derivatives” (Pfizer Inc., priority 2014, dated 2020).
